The source of these data is ChEMBL document CHEMBL3217737, “Discovery of a highly selective FLT3 kinase inhibitor from phenotypic cell viability profiling” (Medchemcomm, 2013).

The subject of one data set is MDA-MB-231. Briefly: Cytotoxicity against human MDA-MB-231 cells assessed as cell viability at 1 uM after 24 hrs by WST1 assay. It counts as functional. The conditions noted are these: MDA-MB-231, 24 h, read-out: Activity. For orientation: Formazan colour is commonly taken as a measure of viable cells.
A short description of data set [1]: Cytotoxicity against rat L6 cells assessed as cell viability at 1 uM after 24 hrs by WST1 assay. Type of data set: cell-based. The conditions noted are these: read-out: Activity.
Data set [2] in a line: Cytotoxicity against mouse NIH/3T3 cells assessed as cell viability at 1 uM after 24 hrs by WST1 assay. The conditions noted are these: read-out: Activity. It counts as cell-based, NIH3T3.
The subject of a further data set is MV4-11. Briefly: Cytotoxicity against human MV4-11 cells assessed as cell viability at 1 uM after 24 hrs by WST1 assay. It counts as functional. The conditions noted are these: MV4-11, 24 h, read-out: Activity.
Data set [3] can be described thus: Cytotoxicity against human U87MG cells assessed as cell viability at 1 uM after 24 hrs by WST1 assay. Type of data set: functional, U-87MG ATCC. The conditions noted are these: U-87 MG, read-out: Activity.
The next data set has as its system MCF7. Briefly: Cytotoxicity against human MCF7 cells assessed as cell viability at 1 uM after 24 hrs by WST1 assay. It counts as functional. To be noted: MCF7, 24 h, read-out: Activity.

With `COc1ccc(-c2n[nH]c3ncc(-c4ccccc4N)cc23)cc1`, the viability at 1 µM in the data set with MDA-MB-231 was determined as 101%; in the data set on MV4-11 it was 89%; in data set [3], 94%; in the data set on MCF7 it was 102%. Besides, the viability at 24 h, 1 µM was 108% in data set [1] and 94% in data set [2].

With `COc1ccc(-c2n[nH]c3ncc(-c4ccc(F)cc4N)cc23)cc1`, the viability at 1 µM came to 95% with MDA-MB-231, 94% in the data set with MV4-11, 94% in data set [3] and 97% in the data set with MCF7. For the same compound, the viability at 24 h, 1 µM in data set [1] and in data set [2] was 104% throughout.

Take `Nc1cc(Cl)ccc1-c1cnc2[nH]nc(-c3ccccc3)c2c1`: the viability at 1 µM in the data set with MDA-MB-231 turned out to be 105%; in the data set with MV4-11 it was 85%; in data set [3] it was 101%; with MCF7, 103%. In addition, the figures for the viability at 24 h, 1 µM in data set [1] and in data set [2] were 96% and 111%, respectively.

Turning to `COc1ccc(-c2n[nH]c3ncc(-c4ccccc4NCc4ccccc4)cc23)cc1`, the viability at 1 µM was determined as 109% in the data set with MDA-MB-231, 97% with MV4-11, 95% in data set [3] and 98% in the data set with MCF7. In addition, the results for the viability at 24 h, 1 µM in data set [1] and in data set [2] were 102% and 99%, respectively.

On to `CNc1ccccc1-c1cnc2[nH]nc(-c3ccc(OC)cc3)c2c1`, for which the viability at 1 µM in the data set with MDA-MB-231 was 114%; with MV4-11, 86%; in data set [3] it was 100%; in the data set on MCF7, 101%. Moreover, the viability at 24 h, 1 µM in data set [1] turned out to be 109%; in data set [2], 106%.

For `COc1ccc(-c2n[nH]c3ncc(-c4c(N)cccc4[N+](=O)[O-])cc23)cc1`, the viability at 1 µM was found to be 123% in the data set with MDA-MB-231, 93% in the data set with MV4-11, 104% in data set [3] and 97% with MCF7. Further, the viability at 24 h, 1 µM in data set [1] turned out to be 110%; in data set [2], 102%.

Turning to `COc1ccc(-c2n[nH]c3ncc(-c4cc(Br)ccc4N)cc23)cc1`, the viability at 1 µM with MDA-MB-231 was 112%; in the data set on MV4-11 it was 82%; in data set [3] it was 100%; with MCF7, 88%. Moreover, the viability at 24 h, 1 µM in data set [1] came to 104%; in data set [2] it was 108%.

In the case of `COc1ccc(-c2n[nH]c3ncc(-c4ccccc4NC(=O)NCc4ccccc4)cc23)cc1`, the viability at 1 µM with MDA-MB-231 stood at 101%; in the data set with MV4-11, 104%; in data set [3] it was 94%; with MCF7, 99%. Further, the viability at 24 h, 1 µM turned out to be 104% in data set [1] and 94% in data set [2].

`COC(=O)c1cccc(N)c1-c1cnc2[nH]nc(-c3ccc(OC)cc3)c2c1`: the viability at 1 µM in the data set on MDA-MB-231 came to 110%; in the data set with MV4-11, 90%; in data set [3], 102%; with MCF7, 89%. Besides, the viability at 24 h, 1 µM in data set [1] came to 105%; in data set [2] it was 101%.

As for `COc1ccc(-c2n[nH]c3ncc(-c4cc([N+](=O)[O-])ccc4N)cc23)cc1`, the viability at 1 µM was found to be 114% in the data set with MDA-MB-231, 92% with MV4-11, 97% in data set [3] and 102% in the data set on MCF7. For the same compound, the values for the viability at 24 h, 1 µM in data set [1] and in data set [2] were 92% and 99%, respectively.

In the case of `COc1ccc(-c2n[nH]c3ncc(-c4cccc(F)c4N)cc23)cc1`, the viability at 1 µM with MDA-MB-231 turned out to be 109%; in the data set with MV4-11 it was 82%; in data set [3] it was 94%; in the data set with MCF7 it was 100%. For the same compound, the viability at 24 h, 1 µM in data set [1] is 100%; in data set [2], 108%.

Regarding `Cc1n[nH]c2ncc(-c3ccc(Cl)cc3N)cc12`, the viability at 1 µM amounted to 107% with MDA-MB-231, 91% in the data set with MV4-11, 99% in data set [3] and 102% with MCF7. For the same compound, the values for the viability at 24 h, 1 µM in data set [1] and in data set [2] were 102% and 103%, respectively.
